Assay results published in ChEMBL document CHEMBL4138123, “Design, synthesis and biological evaluation of novel pyrazolochalcones as potential modulators of PI3K/Akt/mTOR pathway and inducers of apoptosis in breast cancer cells” (Eur J Med Chem, 2017).

Tests used:
SNB-19 = assay: Cytotoxicity against human SNB19 cells assessed as cell growth at 0.1 uM after 48 hrs by sulforhodamine B assay relative to control; type: functional; details: SNB-19, 48 h, read-out: Activity
OVCAR-4 [1] = assay: Cytotoxicity against human OVCAR4 cells assessed as cell growth at 1 uM after 48 hrs by sulforhodamine B assay relative to control; type: functional; details: OVCAR-4, 48 h, read-out: Activity
MDA-MB-468 = assay: Cytotoxicity against human MDA-MB-468 cells assessed as cell growth at 10 uM after 48 hrs by sulforhodamine B assay relative to control; type: functional; details: MDA-MB-468, 48 h, read-out: Activity
SK-MEL-5 = assay: Cytotoxicity against human SK-MEL-5 cells assessed as cell growth at 1 uM after 48 hrs by sulforhodamine B assay relative to control; type: functional; details: SK-MEL-5, 48 h, read-out: Activity
SF-268 = assay: Cytotoxicity against human SF268 cells assessed as cell growth at 0.01 uM after 48 hrs by sulforhodamine B assay relative to control; type: functional; details: SF-268, 48 h, read-out: Activity
A549 = assay: Cytotoxicity against human A549/ATCC cells assessed as growth inhibition after 48 hrs by sulforhodamine B assay; type: functional; details: A549, 48 h
MDA-MB-231 = assay: Cytotoxicity against human MDA-MB-231 cells assessed as growth inhibition after 48 hrs by MTT assay; type: functional, cell-based; details: MDA-MB-231, 48 h
OVCAR-4 [2] = assay: Cytotoxicity against human OVCAR4 cells assessed as cell growth at 10 uM after 48 hrs by sulforhodamine B assay relative to control; type: functional; details: OVCAR-4, 48 h, read-out: Activity
NCI-H522 = assay: Cytotoxicity against human NCI-H522 cells assessed as cell growth at 100 uM after 48 hrs by sulforhodamine B assay relative to control; type: functional; details: NCI-H522, 48 h, read-out: Activity
HL-60(TB) = assay: Cytotoxicity against human HL-60(TB) cells assessed as growth inhibition after 48 hrs by sulforhodamine B assay; type: functional; details: HL-60, 48 h
HCC 2998 = assay: Cytotoxicity against human HCC2998 cells assessed as growth inhibition after 48 hrs by sulforhodamine B assay; type: functional; details: HCC 2998, 48 h
IGROV-1 = assay: Cytotoxicity against human IGROV1 cells assessed as cell growth at 1 uM after 48 hrs by sulforhodamine B assay relative to control; type: functional; details: IGROV-1, 48 h, read-out: Activity
MCF7 [3] = assay: Cytotoxicity against human MCF7 cells assessed as cell growth at 0.01 uM after 48 hrs by sulforhodamine B assay relative to control; type: functional; details: MCF7, 48 h, read-out: Activity
TK-10 [4] = assay: Cytotoxicity against human TK10 cells assessed as cell growth at 100 uM after 48 hrs by sulforhodamine B assay relative to control; type: functional; details: TK-10, 48 h, read-out: Activity
OVCAR-8 [5] = assay: Cytotoxicity against human OVCAR8 cells assessed as cell growth at 0.01 uM after 48 hrs by sulforhodamine B assay relative to control; type: functional; details: OVCAR-8, 48 h, read-out: Activity
OVCAR-8 [6] = assay: Cytotoxicity against human OVCAR8 cells assessed as cell growth at 1 uM after 48 hrs by sulforhodamine B assay relative to control; type: functional; details: OVCAR-8, 48 h, read-out: Activity
UO-31 = assay: Cytotoxicity against human UO31 cells assessed as cell growth at 0.1 uM after 48 hrs by sulforhodamine B assay relative to control; type: functional; details: UO-31, 48 h, read-out: Activity
UACC-62 = assay: Cytotoxicity against human UACC62 cells assessed as growth inhibition after 48 hrs by sulforhodamine B assay; type: functional; details: UACC-62, 48 h
OVCAR-3 = assay: Cytotoxicity against human OVCAR3 cells assessed as cell growth at 100 uM after 48 hrs by sulforhodamine B assay relative to control; type: functional; details: OVCAR-3, 48 h, read-out: Activity
NCI-H226 [7] = assay: Cytotoxicity against human NCI-H226 cells assessed as cell growth at 1 uM after 48 hrs by sulforhodamine B assay relative to control; type: functional; details: NCI-H226, 48 h, read-out: Activity
HT-29 = assay: Cytotoxicity against human HT-29 cells assessed as growth inhibition after 48 hrs by sulforhodamine B assay; type: functional; details: HT-29, 48 h
TK-10 [8] = assay: Cytotoxicity against human TK10 cells assessed as cell growth at 0.1 uM after 48 hrs by sulforhodamine B assay relative to control; type: functional; details: TK-10, 48 h, read-out: Activity
HCT-15 [9] = assay: Cytotoxicity against human HCT15 cells assessed as cell growth at 0.01 uM after 48 hrs by sulforhodamine B assay relative to control; type: functional; details: HCT-15, 48 h, read-out: Activity
UACC-257 = assay: Cytotoxicity against human UACC257 cells assessed as cell growth at 10 uM after 48 hrs by sulforhodamine B assay relative to control; type: functional; details: UACC-257, 48 h, read-out: Activity
SF-539 = assay: Cytotoxicity against human SF539 cells assessed as growth inhibition after 48 hrs by sulforhodamine B assay; type: functional; details: SF-539, 48 h
CCRF-CEM = assay: Cytotoxicity against human CCRF-CEM cells assessed as cell growth at 0.01 uM after 48 hrs by sulforhodamine B assay relative to control; type: functional; details: read-out: Activity
NCI-H226 [10] = assay: Cytotoxicity against human NCI-H226 cells assessed as cell growth at 10 uM after 48 hrs by sulforhodamine B assay relative to control; type: functional; details: NCI-H226, 48 h, read-out: Activity
U-251 = assay: Cytotoxicity against human U251 cells assessed as cell growth at 0.01 uM after 48 hrs by sulforhodamine B assay relative to control; type: functional; details: U-251, 48 h, read-out: Activity
OVCAR-8 [11] = assay: Cytotoxicity against human OVCAR8 cells assessed as cell growth at 0.1 uM after 48 hrs by sulforhodamine B assay relative to control; type: functional; details: OVCAR-8, 48 h, read-out: Activity
MCF7 [12] = assay: Cytotoxicity against human MCF7 cells assessed as growth inhibition after 48 hrs by sulforhodamine B assay; type: functional; details: MCF7, 48 h
NCI/ADR-RES = assay: Cytotoxicity against human NCI/ADR-RES cells assessed as cell growth at 100 uM after 48 hrs by sulforhodamine B assay relative to control; type: functional; details: read-out: Activity
HCT-15 [13] = assay: Cytotoxicity against human HCT15 cells assessed as growth inhibition after 48 hrs by sulforhodamine B assay; type: functional; details: HCT-15, 48 h
MOLT-4 = assay: Cytotoxicity against human MOLT4 cells assessed as cell growth at 0.1 uM after 48 hrs by sulforhodamine B assay relative to control; type: functional; details: MOLT-4, 48 h, read-out: Activity
SK-MEL-28 = assay: Cytotoxicity against human SK-MEL-28 cells assessed as cell growth at 10 uM after 48 hrs by sulforhodamine B assay relative to control; type: functional; details: SK-MEL-28, 48 h, read-out: Activity
K562 = assay: Cytotoxicity against human K562 cells assessed as cell growth at 0.01 uM after 48 hrs by sulforhodamine B assay relative to control; type: functional; details: K562, 48 h, read-out: Activity

In the case of COc1cc(C(=O)/C=C/c2cc(-c3ccc4c(c3)OCO4)n[nH]2)cc(OC)c1OC, the growth at 0.1 µM (SNB-19) is reported as 93%, the growth at 1 µM (OVCAR-4 [1]) is reported as 47% and the growth at 10 µM (MDA-MB-468) is reported as -57%. It also gave a growth at 1 µM (SK-MEL-5) of 89%, a growth at 0.01 µM (SF-268) of 96% and a GI50 (A549) of 2.13 µM. For the same compound, the LC50 (concentration giving 50% net cell kill) (A549) was 30.1 µM, the TGI (A549) was 6.23 µM and the IC50 (MDA-MB-231) was 1.2 µM. The growth at 10 µM (OVCAR-4 [2]) was -28%, the growth at 100 µM (NCI-H522) was -94% and the GI50 (HL-60(TB)) was 2.17 µM. For the same compound, the LC50 (HL-60(TB)) was > 100 µM, the TGI (HL-60(TB)) was 6.49 µM and the GI50 (HCC 2998) was 2.02 µM. The LC50 (HCC 2998) was 8.23 µM, the TGI (HCC 2998) was 4.07 µM and the growth at 1 µM (IGROV-1) was 83%. It also gave a growth at 0.01 µM (MCF7 [3]) of 89%, a growth at 100 µM (TK-10 [4]) of -96% and a growth at 0.01 µM (OVCAR-8 [5]) of 98%. It also gave a growth at 1 µM (OVCAR-8 [6]) of 93%, a growth at 0.1 µM (UO-31) of 82% and a GI50 (UACC-62) of 1.81 µM. For the same compound, the LC50 (UACC-62) was 8.36 µM, the TGI (UACC-62) was 3.89 µM and the growth at 100 µM (OVCAR-3) was -97%. The growth at 1 µM (NCI-H226 [7]) was 70%, the GI50 (HT-29) was 2.45 µM and the LC50 (HT-29) was > 100 µM. For the same compound, the TGI (HT-29) was 6.53 µM, the growth at 0.1 µM (TK-10 [8]) was 92% and the growth at 0.01 µM (HCT-15 [9]) was 98%. For the same compound, the growth at 10 µM (UACC-257) was -2%, the GI50 (SF-539) was 1.33 µM and the LC50 (concentration killing 50% of cells) (SF-539) was 6.65 µM. For the same compound, the TGI (SF-539) was 2.98 µM, the growth at 0.01 µM (CCRF-CEM) was 99% and the growth at 10 µM (NCI-H226 [10]) was -41%. For the same compound, the growth at 0.01 µM (U-251) was 98%, the growth at 0.1 µM (OVCAR-8 [11]) was 100% and the GI50 (MCF7 [12]) was 1.06 µM. The LC50 (MCF7 [12]) was 7.88 µM, the TGI (MCF7 [12]) was 2.88 µM and the growth at 100 µM (NCI/ADR-RES) was -19%. For the same compound, the GI50 (HCT-15 [13]) was 1.95 µM, the LC50 (HCT-15 [13]) was > 100 µM and the TGI (HCT-15 [13]) was 6.75 µM. For the same compound, the growth at 0.1 µM (MOLT-4) was 98%, the growth at 10 µM (SK-MEL-28) was -56% and the growth at 0.01 µM (K562) was 86%.
In the case of COc1ccc(C(=O)/C=C/c2cc(-c3cc(OC)c(OC)c(OC)c3)n[nH]2)cc1, the growth at 0.1 µM (SNB-19) is reported as 88%, the growth at 1 µM (OVCAR-4 [1]) is reported as 80% and the growth at 10 µM (MDA-MB-468) is reported as -92%. The growth at 1 µM (SK-MEL-5) was 93%, the growth at 0.01 µM (SF-268) was 91% and the LC50 (concentration giving 50% net cell kill) (A549) was > 100 µM. For the same compound, the IC50 (MDA-MB-231) was 0.95 µM, the growth at 10 µM (OVCAR-4 [2]) was -7% and the growth at 100 µM (NCI-H522) was -62%. For the same compound, the LC50 (HL-60(TB)) was > 100 µM, the TGI (HL-60(TB)) was 4.78 µM and the LC50 (HCC 2998) was 6.48 µM. It also gave a TGI (HCC 2998) of 3.4 µM, a growth at 1 µM (IGROV-1) of 101% and a growth at 0.01 µM (MCF7 [3]) of 101%. For the same compound, the growth at 100 µM (TK-10 [4]) was -20%, the growth at 0.01 µM (OVCAR-8 [5]) was 95% and the growth at 1 µM (OVCAR-8 [6]) was 86%. For the same compound, the growth at 0.1 µM (UO-31) was 96%, the TGI (UACC-62) was 3.65 µM and the growth at 100 µM (OVCAR-3) was -69%. For the same compound, the growth at 1 µM (NCI-H226 [7]) was 92%, the TGI (HT-29) was 4.19 µM and the growth at 0.1 µM (TK-10 [8]) was 93%. It also gave a growth at 0.01 µM (HCT-15 [9]) of 99%, a growth at 10 µM (UACC-257) of -65% and a GI50 (SF-539) of 1.62 µM. For the same compound, the LC50 (concentration killing 50% of cells) (SF-539) was 5.85 µM, the TGI (SF-539) was 3.08 µM and the growth at 0.01 µM (CCRF-CEM) was 99%. For the same compound, the growth at 10 µM (NCI-H226 [10]) was -59%, the growth at 0.01 µM (U-251) was 97% and the growth at 0.1 µM (OVCAR-8 [11]) was 98%. The LC50 (MCF7 [12]) was 7.61 µM, the TGI (MCF7 [12]) was 2.96 µM and the growth at 100 µM (NCI/ADR-RES) was -6%. The LC50 (HCT-15 [13]) was > 100 µM, the TGI (HCT-15 [13]) was 4.37 µM and the growth at 0.1 µM (MOLT-4) was 103%. For the same compound, the growth at 10 µM (SK-MEL-28) was -55% and the growth at 0.01 µM (K562) was 97%.
